Experimental data taken from patent US10131669B2, “Pyrazolopyrimidine compounds” (Pfizer Inc., priority 2014, dated 2018).
Where a name gives a salt, the structure may show the parent alone.

Key:
Assay type in all cases: biochemical
[1] = target: T1, Human PDE4A3 (Homo sapiens, UniProt P27815); assay: PDE4A3 Scintillation Proximity Assay (SPA), inhibition of enzyme activity; conditions: geometric mean of 2-7 determinations unless otherwise indicated (b: ≥8 determinations; c: single determination), 1 μM cAMP, 30 min at 25° C., read-out: Human PDE4A FL
T1 construct: His6 (N); FLAG (C); made in house; host or cells: insect cells (baculovirus, pFastBac)
Description: (§1) Human PDE4A3 coding sequence (amino acids 2 to 825 from the sequence with accession number NP_001104779) was cloned into the baculovirus expression vector pFastBac (Invitrogen) engineered to include an N-terminal His6 affinity tag and a c-terminal FLAG affinity tag to aid in purification. The recombinant Bacmid was isolated and used to transfect insect cells to generate a viral stock. To generate cell paste for purification, insect cells were infected with the virus stock and cells were harvested 72 hours after infection. Insect cell paste was lysed and after centrifugation, the supernatant was batch bound to Ni-NTA agarose (GE Healthcare) and eluted with 250 mM imidazole. This eluate was diluted with FLAG buffer (50 mM Tris HCL pH 7.5, 100 mM NaCl, 5% Glycerol, 1 mM TCEP with protease inhibitors) and batch bound to ant-FLAG M2 agarose (Sigma) overnight at 4° C. The agarose was packed into a column, washed with buffer and eluted with buffer containing elute using 250 ug/ml Flag-peptide. Fractions were analyzed using SDS-PAGE Coomassie blue staining and pooled based on purity. Pooled fractions were chromatographed on a S200 120 ml column (GE Healthcare) in 50 mM Tris HCL pH 7.5, 150 mM NaCl, 10% Glycerol, 2 mM TCEP with protease inhibitors. PDE4A3 fractions were analyzed by SDS-PAGE Coomassie blue staining, pooled based on purity, dialyzed against 50 mM Tris HCL pH 7.5, 100 mM NaCl, 20% Glycerol, 2 mM TCEP, frozen and stored at −80° C.
(§2) The PDE4A3, PDE4B1, PDE4C1 and PDE4D3 assays use the Scintillation Proximity Assay (SPA) technology to measure the inhibition of human recombinant […], PDE4C1, and PDE4D3 enzyme activity by compounds in vitro. The PDE4A1, PDE4B3, PDE4C1, and PDE4D3 assays are run in parallel using identical parameters, except for the concentration of enzyme (80 pM PDE4A3, 40 pM PDE4B3, 40 pM PDE4C1 and 10 pM PDE4D). The assays are performed in a 384-well format with 50 uL assay buffer (50 mM TRIS pH7.5; 1.3 mM MgCl2; 0.01% Brij) containing enough PDE4A3, PDE4B1, PDE4C1, and PDE4D to convert ˜20% of substrate (1 μM cAMP consisting of 20 nM 3H-cAMP+[…] cold cAMP) and a range of inhibitors. Reactions are incubated for 30 min at 25° C. The addition of 20 uL of 8 mg/ml yitrium silicate SPA beads (Perkin Elmer) stops the reaction. The plates are sealed (TopSeal, Perkin Elmer) and the beads are allowed to settle for 8 hrs, after which they are read on the Trilux Microbeta overnight.

[2] = target: T2, Human PDE4B1 (Homo sapiens, UniProt Q07343, S133E/S654A/S659A/S661A); assay: PDE4B1 Scintillation Proximity Assay (SPA), inhibition of enzyme activity; conditions: geometric mean of 2-7 determinations unless otherwise indicated (b: ≥8 determinations; c: single determination); 1 μM cAMP, 30 min at 25° C.; read-out: Human PDE4B FL; IC50
T2 construct: His6 (N); thrombin cleavage site (N); made in house; host or cells: insect cells (baculovirus, pFastBac)
In short: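 His-tagged human PDE4B1 expressed in insect cells and purified by Ni-NTA and Source 15Q was assayed in 50 mM Tris pH 7.5, 1.3 mM MgCl2, 0.01% Brij. The substrate was 1 μM cAMP with ³H-cAMP tracer, at about 20% conversion, for 30 min at 25 °C. Yttrium silicate SPA beads stopped the reaction; counts were read after 8 h settling.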

[3] = target: T3, Human PDE4C1 (Homo sapiens, UniProt Q08493); assay: PDE4C1 Scintillation Proximity Assay (SPA), inhibition of enzyme activity; conditions: geometric mean of 2-7 determinations unless otherwise indicated (b: ≥8 determinations; c: single determination), 1 μM cAMP, 30 min at 25° C., read-out: Human PDE4C FL
T3 construct: His6 (N); FLAG (C); made in house; host or cells: insect cells (baculovirus, pFastBac)
Procedure: as §1, with “The” for “Human PDE4A3 coding sequence (amino acids 2 to 825 from the sequence with accession number NP_001104779) was cloned into the baculovirus expression vector pFastBac (Invitrogen) engineered to include an N-terminal His6 affinity tag and a c-terminal FLAG affinity tag to aid in purification. The”, “PDE4C1” for “PDE4A3”
as §2

[4] = target: T4, human PDE4D3 (Homo sapiens, UniProt Q08499); assay: PDE4D3 Scintillation Proximity Assay (SPA), inhibition of enzyme activity; conditions: geometric mean of 2-7 determinations unless otherwise indicated (b: ≥8 determinations; c: single determination); 1 μM cAMP, 30 min at 25° C.; read-out: Human PDE4D FL; IC50
T4 construct: His6 (C); made in house; host or cells: insect cells (baculovirus, pFastBac)
In short: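 Recombinant enzyme from insect cells, Ni-NTA and Q Sepharose purified, used at 10 pM in 50 mM Tris pH 7.5, 1.3 mM MgCl2, 0.01% Brij. Substrate 1 μM cAMP with 3H-cAMP tracer, ~20% conversion, inhibitor range, 30 min at 25°C. Stopped with yttrium silicate SPA beads and scintillation read.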

T2 sequence (Q07343 122-736 S133E/S654A/S659A/S661A): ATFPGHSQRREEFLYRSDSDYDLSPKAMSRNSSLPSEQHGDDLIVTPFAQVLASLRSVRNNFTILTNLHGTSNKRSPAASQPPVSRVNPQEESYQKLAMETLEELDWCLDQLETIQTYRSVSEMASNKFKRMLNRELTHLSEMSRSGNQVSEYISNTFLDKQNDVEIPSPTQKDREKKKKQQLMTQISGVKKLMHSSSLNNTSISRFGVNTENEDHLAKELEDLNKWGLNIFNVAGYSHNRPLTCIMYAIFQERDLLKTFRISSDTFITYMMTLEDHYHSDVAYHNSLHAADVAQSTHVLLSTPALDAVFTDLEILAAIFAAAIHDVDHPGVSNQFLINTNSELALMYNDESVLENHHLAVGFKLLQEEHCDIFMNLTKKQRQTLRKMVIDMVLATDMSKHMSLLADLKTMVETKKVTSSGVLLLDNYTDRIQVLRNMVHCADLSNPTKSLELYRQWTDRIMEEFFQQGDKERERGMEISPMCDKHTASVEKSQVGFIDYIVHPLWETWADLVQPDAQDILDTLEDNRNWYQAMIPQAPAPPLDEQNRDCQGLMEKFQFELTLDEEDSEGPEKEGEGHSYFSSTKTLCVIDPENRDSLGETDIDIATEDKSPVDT
T4 sequence (Q08499 186-808): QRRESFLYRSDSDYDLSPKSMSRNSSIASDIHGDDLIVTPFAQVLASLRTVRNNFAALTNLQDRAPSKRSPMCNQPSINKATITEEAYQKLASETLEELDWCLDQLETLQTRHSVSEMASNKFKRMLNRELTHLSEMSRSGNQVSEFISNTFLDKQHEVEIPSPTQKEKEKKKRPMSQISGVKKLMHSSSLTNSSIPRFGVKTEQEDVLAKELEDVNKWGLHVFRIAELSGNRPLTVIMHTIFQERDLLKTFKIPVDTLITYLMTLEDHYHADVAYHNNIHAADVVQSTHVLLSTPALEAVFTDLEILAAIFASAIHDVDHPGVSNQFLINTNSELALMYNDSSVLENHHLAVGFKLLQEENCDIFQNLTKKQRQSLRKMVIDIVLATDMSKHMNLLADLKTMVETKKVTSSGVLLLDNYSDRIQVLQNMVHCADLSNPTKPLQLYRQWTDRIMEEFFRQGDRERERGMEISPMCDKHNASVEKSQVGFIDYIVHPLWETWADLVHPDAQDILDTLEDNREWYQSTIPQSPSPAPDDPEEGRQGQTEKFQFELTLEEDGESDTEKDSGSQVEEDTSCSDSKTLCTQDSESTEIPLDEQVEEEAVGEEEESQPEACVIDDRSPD
T1 sequence (P27815 2-825 isoform P27815-6): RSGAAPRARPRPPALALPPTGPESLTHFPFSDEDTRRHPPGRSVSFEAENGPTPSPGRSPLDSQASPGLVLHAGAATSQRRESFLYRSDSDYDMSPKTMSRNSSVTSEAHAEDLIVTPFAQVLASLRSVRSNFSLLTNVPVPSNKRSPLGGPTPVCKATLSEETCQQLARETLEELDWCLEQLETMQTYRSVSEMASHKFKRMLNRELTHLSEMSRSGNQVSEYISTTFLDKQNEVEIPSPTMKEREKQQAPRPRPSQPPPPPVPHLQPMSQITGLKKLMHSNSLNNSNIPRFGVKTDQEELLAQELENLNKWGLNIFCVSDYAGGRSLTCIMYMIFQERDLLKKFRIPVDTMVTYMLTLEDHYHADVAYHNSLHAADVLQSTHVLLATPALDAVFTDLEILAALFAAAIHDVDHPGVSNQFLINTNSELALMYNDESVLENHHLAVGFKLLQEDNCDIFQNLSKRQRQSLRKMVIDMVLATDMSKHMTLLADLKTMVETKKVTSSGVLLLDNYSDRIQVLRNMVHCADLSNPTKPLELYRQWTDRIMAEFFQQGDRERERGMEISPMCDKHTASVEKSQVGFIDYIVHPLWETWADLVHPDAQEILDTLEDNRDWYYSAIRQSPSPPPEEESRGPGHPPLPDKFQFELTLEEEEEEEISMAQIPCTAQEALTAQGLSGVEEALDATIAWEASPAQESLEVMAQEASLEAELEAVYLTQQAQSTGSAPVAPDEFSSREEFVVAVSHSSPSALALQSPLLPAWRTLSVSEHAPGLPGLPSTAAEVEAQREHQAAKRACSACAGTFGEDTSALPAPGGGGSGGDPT
T3 sequence (Q08493 2-712): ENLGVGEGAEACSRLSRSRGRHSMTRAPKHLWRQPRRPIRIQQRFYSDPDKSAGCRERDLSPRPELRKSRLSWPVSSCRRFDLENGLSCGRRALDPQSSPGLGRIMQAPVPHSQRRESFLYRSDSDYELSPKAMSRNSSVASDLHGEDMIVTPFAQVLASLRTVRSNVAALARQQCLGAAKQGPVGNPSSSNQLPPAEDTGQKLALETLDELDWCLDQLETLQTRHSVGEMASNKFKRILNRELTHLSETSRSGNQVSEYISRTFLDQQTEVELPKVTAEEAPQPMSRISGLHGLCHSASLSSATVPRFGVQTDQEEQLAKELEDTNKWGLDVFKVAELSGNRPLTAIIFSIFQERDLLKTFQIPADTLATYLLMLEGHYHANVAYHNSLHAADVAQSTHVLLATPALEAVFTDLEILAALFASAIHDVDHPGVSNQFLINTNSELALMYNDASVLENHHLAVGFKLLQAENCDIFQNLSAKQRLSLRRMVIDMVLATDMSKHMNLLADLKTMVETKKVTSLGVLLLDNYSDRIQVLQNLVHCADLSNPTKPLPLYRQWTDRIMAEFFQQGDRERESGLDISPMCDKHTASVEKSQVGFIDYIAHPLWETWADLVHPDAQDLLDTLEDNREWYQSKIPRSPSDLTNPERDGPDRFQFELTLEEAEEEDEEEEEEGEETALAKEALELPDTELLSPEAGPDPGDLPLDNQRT

| SMILES | IC50 [1] | IC50 [2] | IC50 [3] | IC50 [4] |
| --- | --- | --- | --- | --- |
| CC1CC1NC(=O)c1nn2cccnc2c1-c1ccc(Cl)cc1 (centres unmarked) [Example 34, 3-(4-chlorophenyl)-N-(2-methylcyclopropyl)pyrazolo[1,5-a]pyrimidine-2-carboxamide] | 120 nM | 138 nM | 449 nM | > 12300 nM |
| CCNC(=O)c1nn2cccnc2c1-c1ccc(Cl)cc1 [Example 52, 3-(4-chlorophenyl)-N-ethylpyrazolo[1,5-a]pyrimidine-2-carboxamide] | 142 nM | 234 nM | 115 nM | 5930 nM |
| CCNC(=O)c1nn2cccnc2c1-c1ccc(Cl)cc1C [Example 18, 3-(4-chloro-2-methylphenyl)-N-ethylpyrazolo[1,5-a]pyrimidine-2-carboxamide] | 39.9 nM | 150 nM | 97.3 nM | 6880 nM |
| CNC(=O)c1nn2cccnc2c1-c1ccc(Cl)cc1 [Example 73, 3-(4-chlorophenyl)-N-methylpyrazolo[1,5-a]pyrimidine-2-carboxamide] | 663 nM | 2070 nM | 435 nM | > 28500 nM |
| N#Cc1c(F)cc(-c2c(C(=O)N3CCC3)nn3cccnc23)cc1F [Example 62, 4-[2-(azetidin-1-ylcarbonyl)pyrazolo[1,5-a]pyrimidin-3-yl]-2,6-difluorobenzonitrile] | 4.33 nM | 17.3 nM | 37.8 nM | 242 nM |
| O=C(c1nn2cc(F)cnc2c1-c1ccc(Cl)c(F)c1)N1CCC1 [Example 66, azetidin-1-yl[3-(4-chloro-3-fluorophenyl)-6-fluoropyrazolo[1,5-a]pyrimidin-2-yl]methanone] | 2 nM | 7 nM | 9 nM | 79 nM |
| O=C(NC1CC1)c1nn2cccnc2c1-c1ccc2ocnc2c1 [Example 60, 3-(1,3-benzoxazol-5-yl)-N-cyclopropylpyrazolo[1,5-a]pyrimidine-2-carboxamide] | 47.1 nM | 226 nM | 650 nM | > 15500 nM |
| N#Cc1cc(F)c(-c2c(C(=O)N3CCC3)nn3cccnc23)cc1F [Example 46, 4-[2-(azetidin-1-ylcarbonyl)pyrazolo[1,5-a]pyrimidin-3-yl]-2,5-difluorobenzonitrile] | 14.7 nM | 54.5 nM | 44 nM | 979 nM |
| Cc1cc(C#N)c(F)cc1-c1c(C(=O)N2CCC2)nn2cccnc12 [Example 69, 4-[2-(azetidin-1-ylcarbonyl)pyrazolo[1,5-a]pyrimidin-3-yl]-2-fluoro-5-methylbenzonitrile] | 3.37 nM | 17.3 nM | 36.1 nM | 92.9 nM |
| O=C(Nc1ncccn1)c1nn2cccnc2c1-c1ccc(Cl)cc1 [Example 8, 3-(4-Chlorophenyl)-N-(pyrimidin-2-yl)pyrazolo[1,5-a]pyrimidine-2-carboxamide] | 190 nM | 1090 nM | 965 nM | > 25200 nM |
| CN(C(=O)c1nn2cccnc2c1-c1ccc(Cl)cc1)C1CC1 [Example 35, 3-(4-chlorophenyl)-N-cyclopropyl-N-methylpyrazolo[1,5-a]pyrimidine-2-carboxamide, hydrochloride salt] | 1110 nM | 1860 nM | 710 nM | > 30000 nM |
| Cc1cc(C#N)c(F)cc1-c1c(C(=O)NC2CC2)nn2cc(F)cnc12 [Example 67, 3-(4-cyano-5-fluoro-2-methylphenyl)-N-cyclopropyl-6-fluoropyrazolo[1,5-a]pyrimidine-2-carboxamide] | 3.46 nM | 16.4 nM | 26.8 nM | 111 nM |
| Cc1cc(Cl)c(F)cc1-c1c(C(=O)NC2CC2)nn2cccnc12 [Example 25, 3-(4-chloro-5-fluoro-2-methylphenyl)-N-cyclopropylpyrazolo[1,5-a]pyrimidine-2-carboxamide] | 5.35 nM | 9.61 nM | 17.4 nM | 283 nM |
| O=C(c1nn2cccnc2c1-c1ccc(Cl)cc1F)N1CCC1 [Example 20, azetidin-1-yl[3-(4-chloro-2-fluorophenyl)pyrazolo[1,5-a]pyrimidin-2-yl]methanone] | 64.5 nM | 67.4 nM | 111 nM | 10900 nM |
| O=C(NC1CC1)c1nn2cccnc2c1-c1cc(F)c(Cl)c(F)c1 [Example 33, 3-(4-chloro-3,5-difluorophenyl)-N-cyclopropylpyrazolo[1,5-a]pyrimidine-2-carboxamide, hydrochloride salt] | 92.6 nM | 3.3 nM | 170 nM | 408 nM |
| COc1cc(-c2c(C(=O)NC3CC3)nn3cccnc23)ccn1 [Example 42, N-cyclopropyl-3-(2-methoxypyridin-4-yl)pyrazolo[1,5-a]pyrimidine-2-carboxamide] | 212 nM | 474 nM | 1190 nM | > 18400 nM |
| O=C(NC1CC1)c1nn2cccnc2c1-c1cc(Cl)ccc1F [Example 13, 3-(5-chloro-2-fluorophenyl)-N-cyclopropylpyrazolo[1,5-a]pyrimidine-2-carboxamide] | 27.2 nM | 57.9 nM | 57.9 nM | 2460 nM |
| Cc1cc(Cl)ccc1-c1c(C(=O)NC2CC2)nn2cccnc12 [Example 6, 3-(4-Chloro-2-methylphenyl)-N-cyclopropylpyrazolo[1,5-a]pyrimidine-2-carboxamide] | 28.7 nM | 55.2 nM | 66 nM | > 10400 nM |
| O=C(NC1CC1)c1nn2cc(F)cnc2c1-c1ccc(Cl)cc1 [Example 7, 3-(4-Chlorophenyl)-N-cyclopropyl-6-fluoropyrazolo[1,5-a]pyrimidine-2-carboxamide] | 8.77 nM | 16.1 nM | 23.4 nM | 1080 nM |
| CCNC(=O)c1nn2cccnc2c1-c1ccnc(OC(F)F)c1 [Example 50, 3-[2-(difluoromethoxy)pyridin-4-yl]-N-ethylpyrazolo[1,5-a]pyrimidine-2-carboxamide] | 17.7 nM | 48.3 nM | 70.8 nM | > 4870 nM |
